In ChEMBL document CHEMBL4308908, “Lamellarin-inspired potent topoisomerase I inhibitors with the unprecedented benzo[g][1]benzopyrano[4,3-b]indol-6(13H)-one scaffold” (Bioorg Med Chem, 2019):
The source made the active and inactive calls. The calls are words filed in the database; no cut-off is given here.

How the values were obtained:
[1] = target: T1, DNA topoisomerase I (Bos taurus) (UniProt F1MN93); experiment: Inhibition of calf thymus DNA topoisomerase 1 assessed as reduction in enzyme-mediated relaxation of supercoiled pBR322 plasmid DNA at 10 uM after 30 mins by agarose gel electrophoresis
T1 sequence (whole entry): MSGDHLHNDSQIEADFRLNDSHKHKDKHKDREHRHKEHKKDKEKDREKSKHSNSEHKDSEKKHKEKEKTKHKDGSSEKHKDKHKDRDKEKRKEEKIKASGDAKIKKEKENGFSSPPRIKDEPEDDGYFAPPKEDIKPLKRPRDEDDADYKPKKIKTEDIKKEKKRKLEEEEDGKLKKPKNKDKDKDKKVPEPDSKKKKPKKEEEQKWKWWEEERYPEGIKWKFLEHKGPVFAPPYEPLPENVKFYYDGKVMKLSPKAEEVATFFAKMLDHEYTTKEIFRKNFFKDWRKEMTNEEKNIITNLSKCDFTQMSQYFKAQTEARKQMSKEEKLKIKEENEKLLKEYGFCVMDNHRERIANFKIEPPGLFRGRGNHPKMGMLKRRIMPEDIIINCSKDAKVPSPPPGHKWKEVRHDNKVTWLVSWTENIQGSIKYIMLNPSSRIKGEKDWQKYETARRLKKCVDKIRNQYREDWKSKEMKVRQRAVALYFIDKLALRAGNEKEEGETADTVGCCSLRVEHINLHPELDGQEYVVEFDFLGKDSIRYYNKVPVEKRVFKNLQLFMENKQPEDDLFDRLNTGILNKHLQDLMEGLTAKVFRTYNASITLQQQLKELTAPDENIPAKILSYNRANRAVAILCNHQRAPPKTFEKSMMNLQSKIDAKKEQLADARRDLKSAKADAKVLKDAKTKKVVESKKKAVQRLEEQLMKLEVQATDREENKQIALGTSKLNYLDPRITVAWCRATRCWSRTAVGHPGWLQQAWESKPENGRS

[2] = target: T1, DNA topoisomerase I (Bos taurus); experiment: Inhibition of calf thymus DNA topoisomerase 1 assessed as reduction in enzyme-mediated relaxation of supercoiled pBR322 plasmid DNA at 10 uM after 30 mins by ethidium bromide staining-based agarose gel electrophoresis
[3] = Antiproliferative activity against human HBC4 cells after 48 hrs by SRB assay; assay type: functional; conditions: HBC4, 48 h
[4] = Antiproliferative activity against human BSY1 cells after 48 hrs by SRB assay; assay type: functional; conditions: BSY-1, 48 h
[5] = Antiproliferative activity against human HBC5 cells after 48 hrs by SRB assay; assay type: functional; conditions: HBC5, 48 h
[6] = system: MCF7; experiment: Antiproliferative activity against human MCF7 cells after 48 hrs by SRB assay; assay type: functional; conditions: MCF7, 48 h
[7] = system: MDA-MB-231; experiment: Antiproliferative activity against human MDA-MB-231 cells after 48 hrs by SRB assay; assay type: functional; conditions: MDA-MB-231, 48 h
[8] = system: U-251; experiment: Antiproliferative activity against human U251 cells after 48 hrs by SRB assay; assay type: functional; conditions: U-251, 48 h
[9] = system: SF-268; experiment: Antiproliferative activity against human SF268 cells after 48 hrs by SRB assay; assay type: functional; conditions: SF-268, 48 h
[10] = system: SF-295; experiment: Antiproliferative activity against human SF295 cells after 48 hrs by SRB assay; assay type: functional; conditions: SF-295, 48 h
[11] = system: SF-539; experiment: Antiproliferative activity against human SF539 cells after 48 hrs by SRB assay; assay type: functional; conditions: SF-539, 48 h
[12] = system: SNB-75; experiment: Antiproliferative activity against human SNB75 cells after 48 hrs by SRB assay; assay type: functional; conditions: SNB-75, 48 h
[13] = system: SNB-78; experiment: Antiproliferative activity against human SNB78 cells after 48 hrs by SRB assay; assay type: functional; conditions: SNB-78, 48 h
[14] = system: HCC 2998; experiment: Antiproliferative activity against human HCC2998 cells after 48 hrs by SRB assay; assay type: functional; conditions: HCC 2998, 48 h
[15] = system: KM12; experiment: Antiproliferative activity against human KM12 cells after 48 hrs by SRB assay; assay type: functional; conditions: KM12, 48 h
[16] = system: HT-29; experiment: Antiproliferative activity against human HT-29 cells after 48 hrs by SRB assay; assay type: functional; conditions: HT-29, 48 h
[17] = system: HCT-15; experiment: Antiproliferative activity against human HCT15 cells after 48 hrs by SRB assay; assay type: functional; conditions: HCT-15, 48 h
[18] = system: HCT-116; experiment: Antiproliferative activity against human HCT116 cells after 48 hrs by SRB assay; assay type: functional; conditions: HCT-116, 48 h
[19] = system: NCI-H23; experiment: Antiproliferative activity against human NCI-H23 cells after 48 hrs by SRB assay; assay type: functional; conditions: NCI-H23, 48 h
[20] = system: NCI-H226; experiment: Antiproliferative activity against human NCI-H226 cells after 48 hrs by SRB assay; assay type: functional; conditions: NCI-H226, 48 h
[21] = system: NCI-H522; experiment: Antiproliferative activity against human NCI-H522 cells after 48 hrs by SRB assay; assay type: functional; conditions: NCI-H522, 48 h
[22] = system: NCI-H460; experiment: Antiproliferative activity against human NCI-H460 cells after 48 hrs by SRB assay; assay type: functional; conditions: NCI-H460, 48 h
[23] = system: A549; experiment: Antiproliferative activity against human A549 cells after 48 hrs by SRB assay; assay type: functional; conditions: A549, 48 h
[24] = system: DMS-273; experiment: Antiproliferative activity against human DMS273 cells after 48 hrs by SRB assay; assay type: functional; conditions: DMS-273, 48 h
[25] = system: DMS-114; experiment: Antiproliferative activity against human DMS114 cells after 48 hrs by SRB assay; assay type: functional; conditions: DMS-114, 48 h
[26] = system: LOX IMVI; experiment: Antiproliferative activity against human LOXIMVI cells after 48 hrs by SRB assay; assay type: functional
[27] = system: OVCAR-3; experiment: Antiproliferative activity against human OVCAR3 cells after 48 hrs by SRB assay; assay type: functional; conditions: OVCAR-3, 48 h
[28] = system: OVCAR-4; experiment: Antiproliferative activity against human OVCAR4 cells after 48 hrs by SRB assay; assay type: functional; conditions: OVCAR-4, 48 h
[29] = system: OVCAR-5; experiment: Antiproliferative activity against human OVCAR5 cells after 48 hrs by SRB assay; assay type: functional; conditions: OVCAR-5, 48 h
[30] = system: OVCAR-8; experiment: Antiproliferative activity against human OVCAR8 cells after 48 hrs by SRB assay; assay type: functional; conditions: OVCAR-8, 48 h
[31] = system: SK-OV-3; experiment: Antiproliferative activity against human SKOV3 cells after 48 hrs by SRB assay; assay type: functional; conditions: SK-OV-3, 48 h
[32] = system: RXF 631; experiment: Antiproliferative activity against human RXF631L cells after 48 hrs by SRB assay; assay type: functional; conditions: RXF 631, 48 h
[33] = system: ACHN; experiment: Antiproliferative activity against human ACHN cells after 48 hrs by SRB assay; assay type: functional
[34] = system: St-4; experiment: Antiproliferative activity against human St-4 cells after 48 hrs by SRB assay; assay type: functional; conditions: St-4, 48 h
[35] = system: MKN-1; experiment: Antiproliferative activity against human MKN1 cells after 48 hrs by SRB assay; assay type: functional; conditions: MKN-1, 48 h
[36] = system: MKN-7; experiment: Antiproliferative activity against human MKN7 cells after 48 hrs by SRB assay; assay type: functional; conditions: MKN-7, 48 h
[37] = system: MKN-28; experiment: Antiproliferative activity against human MKN28 cells after 48 hrs by SRB assay; assay type: functional; conditions: MKN-28, 48 h
[38] = system: MKN-45; experiment: Antiproliferative activity against human MKN45 cells after 48 hrs by SRB assay; assay type: functional; conditions: MKN-45, 48 h
[39] = system: MKN-74; experiment: Antiproliferative activity against human MKN74 cells after 48 hrs by SRB assay; assay type: functional; conditions: MKN-74, 48 h
[40] = system: DU-145; experiment: Antiproliferative activity against human DU145 cells after 48 hrs by SRB assay; assay type: functional; conditions: DU-145, 48 h
[41] = system: PC-3; experiment: Antiproliferative activity against human PC3 cells after 48 hrs by SRB assay; assay type: functional; conditions: PC-3, 48 h

SMILES: COc1cc2c(ccc3c4c(=O)oc5cc(O)c(OC)cc5c4n(C)c23)cc1O
- inhibition [1]: Active
- inhibition [2]: Active
- GI50 [3]: 13.5 nM
- GI50 [4]: 33.9 nM
- GI50 [5]: 95.5 nM
- GI50 ([6]; read-out: GI50): 9.6 nM
- GI50 ([6]; read-out: pGI50 (converted)): 9.55 nM
- GI50 [7]: 115 nM
- GI50 ([8]; read-out: GI50): 1.3 nM
- GI50 ([8]; read-out: pGI50 (converted)): 1.32 nM
- GI50 [9]: 2.19 nM
- GI50 [10]: 4.57 nM
- GI50 [11]: 2.82 nM
- GI50 [12]: 8.13 nM
- GI50 [13]: 200 nM
- GI50 [14]: 39.8 nM
- GI50 [15]: 46.8 nM
- GI50 [16]: 3890 nM
- GI50 [17]: 162 nM
- GI50 ([18]; read-out: GI50): 8.8 nM
- GI50 ([18]; read-out: pGI50 (converted)): 8.91 nM
- GI50 [19]: 4.57 nM
- GI50 [20]: 89.1 nM
- GI50 ([21]; read-out: GI50): 1.8 nM
- GI50 ([21]; read-out: pGI50 (converted)): 1.82 nM
- GI50 [22]: 2.14 nM
- GI50 [23]: 4.17 nM
- GI50 [24]: 2.04 nM
- GI50 [25]: 3.89 nM
- GI50 ([26]; read-out: GI50): 2.6 nM
- GI50 ([26]; read-out: pGI50 (converted)): 2.57 nM
- GI50 [27]: 39.8 nM
- GI50 [28]: 26.9 nM
- GI50 [29]: 79.4 nM
- GI50 [30]: 20.4 nM
- GI50 ([31]; read-out: GI50): 9.4 nM
- GI50 ([31]; read-out: pGI50 (converted)): 9.33 nM
- GI50 [32]: 4680 nM
- GI50 ([33]; read-out: GI50): < 1 nM
- GI50 ([33]; read-out: pGI50 (converted)): 1 nM
- GI50 [34]: 10000 nM
- GI50 [35]: 37.1 nM
- GI50 [36]: 45.7 nM
- GI50 ([37]; read-out: GI50): 33 nM
- GI50 ([37]; read-out: pGI50 (converted)): 33.1 nM
- GI50 [38]: 32.4 nM
- GI50 [39]: 52.5 nM
- GI50 ([40]; read-out: GI50): 2.5 nM
- GI50 ([40]; read-out: pGI50 (converted)): 2.51 nM
- GI50 [41]: 132 nM
